Data set [1] is described as follows: Permeability across human Caco-2 cells. To be noted: read-out: permeability. It is filed as ADME, cell-based. On the technique in general: Caco-2 monolayers are a common model of the intestinal barrier.
A short description of data set [2]: Stability in rabbit liver microsome after 1 hr. To be noted: liver microsomes, read-out: Stability. In kind it is ADME, Oryctolagus cuniculus. A general note: Liver microsomes are vesicles of endoplasmic reticulum, rich in cytochrome P450 enzymes.

On to `COc1ccc(CNc2ncnc3c(CCO)c(OC)c(NC(C)=O)cc23)cc1Cl`, for which the Papp in data set [1] amounted to 17.3 ×10⁻⁶ cm/s.

As to `CCCc1c(OC)c(NC(=O)C(F)(F)F)cc2c(NCc3ccc(OC)c(Cl)c3)ncnc12`, the remaining at 1 h in data set [2] was > 80%.

In the case of `CCC(=O)Nc1cc2c(NCc3ccc(OC)c(Cl)c3)ncnc2c(CCO)c1OC`, the Papp in data set [1] was determined as 46.9 ×10⁻⁶ cm/s. In data set [2], the remaining at 1 h is > 80%.

The record behind these values is ChEMBL document CHEMBL1152170 (Bioorg Med Chem Lett, 2008).
